# In ChEMBL document CHEMBL1201862, “PubChem BioAssay data set” (2004):
# Active and inactive are the calls of the source.
# What was measured:
# [1] = molecular target: Peroxisome proliferator-activated receptor gamma/Nuclear receptor coactivator 3 (Homo sapiens, UniProt P37231); type: functional;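 further: agonist potency for raising coactivator recruitment to the receptor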
# [2] = molecular target: Peroxisome proliferator-activated receptor gamma/Nuclear receptor coactivator 1 (Homo sapiens, UniProt P37231); type: functional;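 further: agonist potency as compounds enhance coactivator SRC-1 recruitment to PPARgamma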
# [3] = molecular target: Peroxisome proliferator-activated receptor gamma/Nuclear receptor coactivator 2 (Homo sapiens, UniProt P37231); type: functional;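 further: agonist potency for raising coactivator recruitment to the receptor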
# [4] = molecular target: T1, Alkaline phosphatase, tissue-nonspecific isozyme (Homo sapiens, UniProt P05186); assay: potency against alkaline phosphatase TNAP – biochemical, luminescent, dose response, SAR follow-up (AID 1056)
# T1 sequence (P05186 whole entry): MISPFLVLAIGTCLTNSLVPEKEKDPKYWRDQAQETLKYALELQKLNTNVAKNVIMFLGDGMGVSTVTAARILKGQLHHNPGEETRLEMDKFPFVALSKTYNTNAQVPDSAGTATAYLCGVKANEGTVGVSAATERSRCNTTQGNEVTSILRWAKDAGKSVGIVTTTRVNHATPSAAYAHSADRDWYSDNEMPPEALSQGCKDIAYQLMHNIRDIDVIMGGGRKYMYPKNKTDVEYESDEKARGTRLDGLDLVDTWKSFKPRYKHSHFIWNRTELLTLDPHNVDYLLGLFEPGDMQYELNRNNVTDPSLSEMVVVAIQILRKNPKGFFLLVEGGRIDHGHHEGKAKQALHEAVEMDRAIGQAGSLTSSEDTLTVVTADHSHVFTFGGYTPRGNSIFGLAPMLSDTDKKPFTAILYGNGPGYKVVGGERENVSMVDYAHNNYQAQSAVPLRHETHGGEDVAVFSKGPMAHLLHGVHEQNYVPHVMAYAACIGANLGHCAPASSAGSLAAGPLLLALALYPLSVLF
# [5] = molecular target: Glyceraldehyde-3-phosphate dehydrogenase (Homo sapiens, UniProt P04406)
# Glyceraldehyde-3-phosphate dehydrogenase, sequence (P04406 whole entry): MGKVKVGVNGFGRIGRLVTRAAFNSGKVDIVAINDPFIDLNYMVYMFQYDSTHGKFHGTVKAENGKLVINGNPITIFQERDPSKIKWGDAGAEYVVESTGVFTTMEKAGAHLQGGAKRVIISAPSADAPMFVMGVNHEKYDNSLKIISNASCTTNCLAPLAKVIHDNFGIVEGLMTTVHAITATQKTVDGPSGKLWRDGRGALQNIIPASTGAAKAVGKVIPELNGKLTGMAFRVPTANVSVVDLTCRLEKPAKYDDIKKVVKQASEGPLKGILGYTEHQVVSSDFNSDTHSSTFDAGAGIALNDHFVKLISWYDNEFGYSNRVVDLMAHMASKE
# [6] = molecular target: T2, Beta-galactosidase (Escherichia coli, UniProt Q8VNN2); assay: detection-enzyme interference by beta-gal modulators – biochemical, E. coli enzyme, set 3, artefact control for CCR6 antagonist project, dose response (AID 504712); type: functional
# T2 sequence (Q8VNN2 whole entry): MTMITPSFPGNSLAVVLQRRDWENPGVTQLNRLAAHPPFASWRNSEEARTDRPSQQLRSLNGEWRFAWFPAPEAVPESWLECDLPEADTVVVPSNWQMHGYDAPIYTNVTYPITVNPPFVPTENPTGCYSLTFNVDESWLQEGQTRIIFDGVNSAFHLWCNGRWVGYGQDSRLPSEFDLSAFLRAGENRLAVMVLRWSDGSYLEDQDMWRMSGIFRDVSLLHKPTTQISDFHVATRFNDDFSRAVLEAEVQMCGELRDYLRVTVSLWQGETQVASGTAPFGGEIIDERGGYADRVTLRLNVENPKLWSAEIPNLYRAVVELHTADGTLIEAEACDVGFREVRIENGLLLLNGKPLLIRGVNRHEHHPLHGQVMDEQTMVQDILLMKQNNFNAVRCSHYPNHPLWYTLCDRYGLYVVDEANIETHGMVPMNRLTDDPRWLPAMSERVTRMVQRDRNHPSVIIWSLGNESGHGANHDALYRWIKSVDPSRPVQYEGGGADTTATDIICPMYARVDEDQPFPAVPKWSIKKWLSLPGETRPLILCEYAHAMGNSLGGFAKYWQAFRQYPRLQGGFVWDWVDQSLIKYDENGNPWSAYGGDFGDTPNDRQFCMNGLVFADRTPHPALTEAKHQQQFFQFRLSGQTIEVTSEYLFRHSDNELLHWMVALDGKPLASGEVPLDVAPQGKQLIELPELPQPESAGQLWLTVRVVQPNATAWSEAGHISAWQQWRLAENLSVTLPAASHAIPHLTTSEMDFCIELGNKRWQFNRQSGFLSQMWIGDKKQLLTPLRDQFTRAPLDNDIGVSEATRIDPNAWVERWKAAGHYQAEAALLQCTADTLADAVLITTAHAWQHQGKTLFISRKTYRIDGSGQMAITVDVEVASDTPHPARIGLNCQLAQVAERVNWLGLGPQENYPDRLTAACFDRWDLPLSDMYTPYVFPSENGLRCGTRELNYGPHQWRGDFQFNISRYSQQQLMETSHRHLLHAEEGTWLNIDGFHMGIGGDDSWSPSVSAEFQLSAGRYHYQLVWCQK
# [7] = molecular target: T3, Heat shock factor protein 1 (Mus musculus, UniProt P38532); assay: decrease of HSF1-responsive luciferase luminescence – cell-based, NIH3T3, dose retest, confirmation (AID 2382); type: functional;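 further: NIH3T3 fibroblasts with HSF1-driven luciferase reporter stressed by proteasome inhibitor MG132; luminescence from HSF1-driven luciferase expression after 8 hours of MG132 stress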
# T3 sequence (P38532 whole entry): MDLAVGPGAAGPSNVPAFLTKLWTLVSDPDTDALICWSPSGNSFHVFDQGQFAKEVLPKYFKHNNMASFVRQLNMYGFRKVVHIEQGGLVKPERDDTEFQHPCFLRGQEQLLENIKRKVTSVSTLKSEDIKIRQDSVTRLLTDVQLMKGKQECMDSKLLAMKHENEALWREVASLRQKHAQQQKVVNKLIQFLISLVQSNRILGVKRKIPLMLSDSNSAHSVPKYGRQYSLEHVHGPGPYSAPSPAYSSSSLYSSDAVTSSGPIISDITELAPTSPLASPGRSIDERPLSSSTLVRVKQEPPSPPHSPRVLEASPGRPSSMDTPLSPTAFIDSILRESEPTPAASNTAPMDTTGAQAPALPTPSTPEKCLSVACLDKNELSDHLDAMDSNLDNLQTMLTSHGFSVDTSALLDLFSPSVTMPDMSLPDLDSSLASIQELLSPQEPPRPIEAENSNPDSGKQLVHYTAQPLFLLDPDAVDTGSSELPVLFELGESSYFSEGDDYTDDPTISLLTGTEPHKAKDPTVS
# [8] = molecular target: T4, Insulin-degrading enzyme (Homo sapiens, UniProt P14735); assay: Dose Response: Fluorescence polarization-based cell-based high throughput dose response assay for inhibitors of insulin-degrading enzyme (IDE). [Related pubchem assays: 434962 (Primary screen (IDE inhibitors in singlicate)), 449730 (Counterscreen (Cytotoxicity in triplicate)), 435028 (Confirmation (IDE inhibitors in triplicate)), 434984 (Summary …; type: functional
# T4 sequence (P14735 whole entry): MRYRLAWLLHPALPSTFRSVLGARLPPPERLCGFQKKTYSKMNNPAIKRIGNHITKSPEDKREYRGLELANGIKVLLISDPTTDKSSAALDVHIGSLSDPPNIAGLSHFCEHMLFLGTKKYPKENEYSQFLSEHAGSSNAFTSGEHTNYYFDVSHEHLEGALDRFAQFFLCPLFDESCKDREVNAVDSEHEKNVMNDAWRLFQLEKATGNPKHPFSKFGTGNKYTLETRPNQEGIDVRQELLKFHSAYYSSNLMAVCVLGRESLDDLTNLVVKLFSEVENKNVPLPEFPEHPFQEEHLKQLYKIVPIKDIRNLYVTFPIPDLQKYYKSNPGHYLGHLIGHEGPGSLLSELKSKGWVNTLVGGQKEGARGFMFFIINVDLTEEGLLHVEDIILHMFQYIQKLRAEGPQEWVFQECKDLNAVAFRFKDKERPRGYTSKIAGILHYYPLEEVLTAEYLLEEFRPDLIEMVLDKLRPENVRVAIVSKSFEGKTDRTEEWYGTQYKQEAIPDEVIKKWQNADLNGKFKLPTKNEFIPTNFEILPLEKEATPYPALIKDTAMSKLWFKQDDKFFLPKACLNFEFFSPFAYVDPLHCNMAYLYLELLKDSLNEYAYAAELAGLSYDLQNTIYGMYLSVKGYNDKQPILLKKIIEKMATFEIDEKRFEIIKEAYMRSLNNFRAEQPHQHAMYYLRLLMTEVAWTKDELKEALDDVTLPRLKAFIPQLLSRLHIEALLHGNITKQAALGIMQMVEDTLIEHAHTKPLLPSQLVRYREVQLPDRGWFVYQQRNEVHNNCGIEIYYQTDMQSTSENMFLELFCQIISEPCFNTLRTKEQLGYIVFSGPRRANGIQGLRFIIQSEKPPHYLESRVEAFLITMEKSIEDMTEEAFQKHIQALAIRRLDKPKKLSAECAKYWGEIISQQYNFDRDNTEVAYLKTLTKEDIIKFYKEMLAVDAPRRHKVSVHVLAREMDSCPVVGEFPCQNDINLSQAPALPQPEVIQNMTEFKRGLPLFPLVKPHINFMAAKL
# [9] = Counterscreen for IDE inhibitors: Luminescence-based cell-based high throughput dose response assay to identify compounds that are cytotoxic to HEK cells. [Related pubchem assays: 434962 (Primary screen (IDE inhibitors in singlicate)), 449730 (Counterscreen (Cytotoxicity in triplicate)), 435028 (Confirmation (IDE inhibitors in triplicate)) …; type: functional; details: HEK293
# [10] = molecular target: T5, Kappa-type opioid receptor (Homo sapiens, UniProt P41145); type: functional
# T5 sequence (P41145 whole entry): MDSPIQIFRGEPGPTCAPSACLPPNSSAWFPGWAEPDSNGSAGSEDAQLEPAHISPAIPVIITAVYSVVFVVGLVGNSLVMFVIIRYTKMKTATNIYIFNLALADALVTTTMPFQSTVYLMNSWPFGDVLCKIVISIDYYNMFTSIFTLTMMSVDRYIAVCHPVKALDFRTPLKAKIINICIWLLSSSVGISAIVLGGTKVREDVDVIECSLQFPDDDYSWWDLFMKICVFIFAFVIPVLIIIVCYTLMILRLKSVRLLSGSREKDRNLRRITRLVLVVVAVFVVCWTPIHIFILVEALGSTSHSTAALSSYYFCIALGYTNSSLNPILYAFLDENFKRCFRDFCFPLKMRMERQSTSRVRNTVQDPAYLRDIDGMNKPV
# [11] = molecular target: T2, Beta-galactosidase; type: functional
# [12] = molecular target: T5, Kappa-type opioid receptor; type: functional; remark: listed apart in the source
# [13] = molecular target: Alkaline phosphatase, placental type (Homo sapiens, UniProt P05187); assay: human placental alkaline phosphatase inhibition – biochemical, luminescence, confirmation (AID 1512); type: functional
# Alkaline phosphatase, placental type, sequence (P05187 whole entry): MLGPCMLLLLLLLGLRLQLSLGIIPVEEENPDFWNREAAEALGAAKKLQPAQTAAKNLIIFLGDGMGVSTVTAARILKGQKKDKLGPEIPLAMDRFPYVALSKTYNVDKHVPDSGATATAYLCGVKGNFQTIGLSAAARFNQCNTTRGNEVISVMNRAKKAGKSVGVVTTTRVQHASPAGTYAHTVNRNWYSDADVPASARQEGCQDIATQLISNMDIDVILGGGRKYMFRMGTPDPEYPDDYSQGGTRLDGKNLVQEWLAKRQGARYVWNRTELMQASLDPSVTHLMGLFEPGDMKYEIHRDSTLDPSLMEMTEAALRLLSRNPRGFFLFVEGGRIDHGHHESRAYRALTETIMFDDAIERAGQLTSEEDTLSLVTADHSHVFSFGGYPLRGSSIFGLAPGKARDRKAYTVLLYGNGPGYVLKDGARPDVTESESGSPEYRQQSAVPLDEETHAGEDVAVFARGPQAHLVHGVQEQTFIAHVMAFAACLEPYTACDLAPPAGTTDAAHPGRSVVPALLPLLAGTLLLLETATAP
# [14] = molecular target: G-protein coupled receptor 55 (Homo sapiens, UniProt Q9Y2T6); assay: selective activators of receptor GPR55 – imaging, U2OS cells, beta-arrestin-GFP redistribution, primary screen (AID 1961); type: functional
# G-protein coupled receptor 55, sequence (Q9Y2T6 whole entry): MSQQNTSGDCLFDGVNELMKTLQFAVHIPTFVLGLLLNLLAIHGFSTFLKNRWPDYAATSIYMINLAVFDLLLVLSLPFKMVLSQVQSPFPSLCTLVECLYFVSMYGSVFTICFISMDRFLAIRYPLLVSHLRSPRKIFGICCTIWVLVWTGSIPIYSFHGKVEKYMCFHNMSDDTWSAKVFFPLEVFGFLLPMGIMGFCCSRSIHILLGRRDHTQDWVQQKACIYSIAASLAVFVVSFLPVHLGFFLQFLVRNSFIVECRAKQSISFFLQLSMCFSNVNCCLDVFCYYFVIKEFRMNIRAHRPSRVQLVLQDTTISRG
# [15] = molecular target: T6, Hexokinase (Trypanosoma brucei, UniProt Q38C41); assay: Confirmation assay for inhibitors of Trypanosoma brucei hexokinase 1-Analogue-first series. [Related pubchem assays (depositor defined):AID1430, AID1632, AID2516, AID2560, AID2579, AID2600, AID449725, AID492951]; type: functional
# T6 sequence (Q38C41 whole entry): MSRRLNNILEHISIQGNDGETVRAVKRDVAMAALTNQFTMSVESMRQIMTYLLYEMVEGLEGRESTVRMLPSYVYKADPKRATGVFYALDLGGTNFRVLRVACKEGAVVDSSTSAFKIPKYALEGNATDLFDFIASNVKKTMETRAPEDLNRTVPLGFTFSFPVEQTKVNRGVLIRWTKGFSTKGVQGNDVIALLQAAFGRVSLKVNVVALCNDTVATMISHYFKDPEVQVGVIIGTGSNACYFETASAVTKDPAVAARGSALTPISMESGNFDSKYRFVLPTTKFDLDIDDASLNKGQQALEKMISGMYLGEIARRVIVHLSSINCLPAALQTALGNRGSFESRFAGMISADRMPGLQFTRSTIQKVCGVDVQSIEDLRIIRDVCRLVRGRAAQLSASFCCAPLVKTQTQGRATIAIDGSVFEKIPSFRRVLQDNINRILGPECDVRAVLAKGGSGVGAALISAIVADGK
# [16] = molecular target: Tumor necrosis factor (Homo sapiens, UniProt P01375); assay: analog potency on TNFa NF-kB signaling – cell-based, revised, SAR follow-up (AID 2337); type: functional
# Tumor necrosis factor, sequence (P01375 whole entry, the tested form may be a part): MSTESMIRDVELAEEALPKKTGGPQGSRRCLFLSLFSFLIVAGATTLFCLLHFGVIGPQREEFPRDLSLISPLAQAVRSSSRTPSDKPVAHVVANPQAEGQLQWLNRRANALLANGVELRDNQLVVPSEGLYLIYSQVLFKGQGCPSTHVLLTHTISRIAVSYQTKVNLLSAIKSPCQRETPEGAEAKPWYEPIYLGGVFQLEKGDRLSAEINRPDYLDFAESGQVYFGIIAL
# [17] = molecular target: Nucleotide-binding oligomerization domain-containing protein 2 (Homo sapiens, UniProt Q9HC29); assay: PubChem AID 2334; type: functional
# Nucleotide-binding oligomerization domain-containing protein 2, sequence (Q9HC29 whole entry, the tested form may be a part): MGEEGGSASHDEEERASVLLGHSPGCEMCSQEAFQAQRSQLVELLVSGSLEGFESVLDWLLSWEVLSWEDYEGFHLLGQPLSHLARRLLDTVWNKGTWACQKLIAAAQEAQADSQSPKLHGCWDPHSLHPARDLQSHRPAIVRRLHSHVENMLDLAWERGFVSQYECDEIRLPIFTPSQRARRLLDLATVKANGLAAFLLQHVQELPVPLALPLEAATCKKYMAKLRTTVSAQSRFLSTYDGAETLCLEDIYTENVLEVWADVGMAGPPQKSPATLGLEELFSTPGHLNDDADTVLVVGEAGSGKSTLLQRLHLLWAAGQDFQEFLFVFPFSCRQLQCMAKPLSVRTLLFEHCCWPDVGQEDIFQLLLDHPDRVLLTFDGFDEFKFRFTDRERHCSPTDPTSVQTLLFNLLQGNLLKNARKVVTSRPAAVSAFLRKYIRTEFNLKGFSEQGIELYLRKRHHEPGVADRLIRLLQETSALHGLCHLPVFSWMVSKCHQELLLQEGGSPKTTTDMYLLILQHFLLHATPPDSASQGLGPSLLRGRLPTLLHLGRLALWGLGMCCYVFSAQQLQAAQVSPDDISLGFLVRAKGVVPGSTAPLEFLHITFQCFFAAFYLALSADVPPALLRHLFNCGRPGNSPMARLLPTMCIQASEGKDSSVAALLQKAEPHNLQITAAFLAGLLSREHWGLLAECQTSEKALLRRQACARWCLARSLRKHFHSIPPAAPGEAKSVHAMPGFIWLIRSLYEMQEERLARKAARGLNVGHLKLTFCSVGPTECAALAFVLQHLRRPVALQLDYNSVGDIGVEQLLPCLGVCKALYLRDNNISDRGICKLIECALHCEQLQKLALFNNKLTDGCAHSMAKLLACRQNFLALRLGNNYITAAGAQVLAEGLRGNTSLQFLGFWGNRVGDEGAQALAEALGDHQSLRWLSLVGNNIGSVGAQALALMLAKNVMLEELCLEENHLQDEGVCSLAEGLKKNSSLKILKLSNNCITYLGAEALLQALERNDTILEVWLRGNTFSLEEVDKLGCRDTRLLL
# [18] = tested on: HEK293; assay: cells; details: Homo sapiens;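 further: cells exposed to compound for 14 hours overnight before viability readout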
# [19] = molecular target: T7, Nucleotide-binding oligomerization domain-containing protein 1 (Homo sapiens, UniProt Q9Y239); assay: blockers of NOD1 pathway activity – revised, SAR follow-up (AID 2333); type: functional
# T7 sequence (Q9Y239 whole entry): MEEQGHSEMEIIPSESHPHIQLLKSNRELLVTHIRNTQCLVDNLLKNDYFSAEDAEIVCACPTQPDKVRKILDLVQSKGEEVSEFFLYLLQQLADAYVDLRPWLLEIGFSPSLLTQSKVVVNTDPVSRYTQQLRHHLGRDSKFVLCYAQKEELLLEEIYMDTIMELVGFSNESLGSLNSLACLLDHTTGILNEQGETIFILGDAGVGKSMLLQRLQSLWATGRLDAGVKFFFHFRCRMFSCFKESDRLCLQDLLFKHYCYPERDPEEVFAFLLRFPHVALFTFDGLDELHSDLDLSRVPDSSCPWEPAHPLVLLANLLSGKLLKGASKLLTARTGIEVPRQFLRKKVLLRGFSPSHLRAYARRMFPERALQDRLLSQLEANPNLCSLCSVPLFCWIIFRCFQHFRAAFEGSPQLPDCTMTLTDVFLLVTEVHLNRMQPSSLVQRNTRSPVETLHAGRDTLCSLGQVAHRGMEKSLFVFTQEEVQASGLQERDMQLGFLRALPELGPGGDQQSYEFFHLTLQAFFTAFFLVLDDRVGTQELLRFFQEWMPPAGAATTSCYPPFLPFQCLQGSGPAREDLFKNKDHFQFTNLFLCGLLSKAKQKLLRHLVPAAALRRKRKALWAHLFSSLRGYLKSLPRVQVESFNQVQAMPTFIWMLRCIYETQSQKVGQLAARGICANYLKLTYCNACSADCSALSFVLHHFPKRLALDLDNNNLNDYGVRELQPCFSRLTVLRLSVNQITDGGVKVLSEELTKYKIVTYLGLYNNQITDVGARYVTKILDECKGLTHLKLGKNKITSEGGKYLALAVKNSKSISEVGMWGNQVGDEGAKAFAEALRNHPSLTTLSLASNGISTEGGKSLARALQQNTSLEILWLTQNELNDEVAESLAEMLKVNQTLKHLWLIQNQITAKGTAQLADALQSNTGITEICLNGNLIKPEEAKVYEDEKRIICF
smiles,measurement,setting,value
O=S(=O)(c1ccccc1)c1nc(-c2ccco2)oc1N1CCOCC1,EC50,[1],> 79.4 µM (not active)
same,EC50,[2],85.1 µM (not active)
same,EC50,[3],> 79.4 µM (not active)
Cc1cc(C)c(S(=O)(=O)Nc2cnc3ccccc3c2)c(C)c1,IC50,[4],> 100 µM (inactive)
same,IC50,[5],> 100 µM (not active)
O=C(Cc1ccccc1)Nc1cccc(N2C(=O)C=CC2=O)c1,IC50,[6],> 66.6 µM (inactive)
same,EC50,[7],19 µM (active)
O=C(c1ccco1)N1CCN(c2ccnc3cc(Cl)ccc23)CC1,IC50,[8],> 18.6 µM (not active)
same,IC50,[9],18.2 µM (not active)
O=C1/C(=C\c2ccc(O)cc2)SC(=S)N1c1cccnc1,IC50,[10],11.4 µM (active)
same,EC50,[11],14.6 µM (active)
same,IC50,[12],> 32 µM
O=C(c1cc(-c2cc(F)c(Cl)cc2Cl)n[nH]1)N1CCOCC1,IC50,[4],3.37 µM (active)
same,IC50,[5],> 100 µM (not active)
same,IC50,[13],> 100 µM (inactive)
COc1ccccc1Cn1c(SCC(=O)C(C)(C)C)nc2cc(C(=O)N3CCC4(CC3)OCCO4)ccc2c1=O,EC50,[14],4.58 µM (active)
CN1/C(=C\C(=O)COC(=O)c2ccccc2O)C(C)(C)c2ccccc21,EC50,[14],1.67 µM (active)
O=c1c2ccccc2[s+]([O-])n1-c1cccc(F)c1 (stereo not drawn),IC50,[15],> 25 µM (inactive)
CCOc1ccc(C(=O)NC2CCCc3c2cnn3-c2ccccc2F)cc1 (stereo not drawn),IC50,[16],> 20 µM (inactive)
same,IC50,[17],18.5 µM (active)
same,IC50,[18],> 20 µM (inactive)
same,IC50,[19],12.8 µM (active)
COc1ccc(C(=O)Nc2cc(F)ccc2C(=O)O)cc1,IC50,[15],24.8 µM (active)
COc1ccccc1CNC(=O)c1oc2ccccc2c1C,EC50,[14],3.85 µM (active)
CCc1cc(C(=O)NC2CCCc3c2cnn3-c2ccccc2F)no1 (stereo not drawn),IC50,[16],> 20 µM (inactive)
same,IC50,[17],> 20 µM (inactive)
same,IC50,[18],> 20 µM (inactive)
same,IC50,[19],17.5 µM (active)
Cn1nccc1C(=O)N[C@H]1CCCc2c1cnn2-c1ccccc1F,IC50,[16],0.994 µM (active)
same,IC50,[17],1.12 µM (active)
same,IC50,[18],> 20 µM (inactive)
same,IC50,[19],0.781 µM (active)
COc1ccc2sn(-c3ccccc3)c(=O)c2c1,IC50,[15],3.22 µM (active)
